Target: Human recombinant carboxy-terminal his-tagged LDHA (amino acids 2-332) (Homo sapiens, UniProt P00338)
Experiment: LDHA enzyme inhibition assay (NADH fluorescence)
Details: LDHA IC50 (μM), 1 nM LDHA, NADH and pyruvate, stereochemistry of tested sample given

Row | Structure (SMILES) | IC50 [µM]
1 | O=C1CC(c2ccsc2)(c2cccc(Oc3cccc(F)c3)n2)NC(=O)C1Sc1ccccc1Cl (single isomer, unassigned) [Example 47, 3-(2-chlorophenyl) sulfanyl-6-[6-(3-fluorophenoxy)-2-pyridyl]-6-(3-thienyl)piperidine-2,4-dione] | 0.12
2 | O=C1CC(c2ccsc2)(c2cccc(Oc3ccc(F)c(F)c3)n2)NC(=O)C1Sc1ccccc1Cl (single isomer, unassigned) [Example 57, 3-(2-chlorophenyl)sulfanyl-6-[6-(3,4-difluoro-phenoxy)-2-pyridyl]-6-(3-thienyl)piperidine-2,4-dione] | 0.086
3 | O=C1CC(c2ccsc2)(c2cccc(Oc3cncc(F)c3)n2)NC(=O)C1Sc1ccccc1Cl (single isomer, unassigned) [Example 65, 3-(2-chlorophenyl)sulfanyl-6-[6-[(5-fluoro-3-pyridyl)oxy]-2-pyridyl]-6-(3-thienyl)piperidine-2,4-dione] | 0.056
4 | O=C1CC(c2ccsc2)(c2cccc(Oc3ccc(F)c(F)c3)n2)NC(=O)C1Sc1ccccc1Cl (single isomer, unassigned) [Example 77, 3-(2-chlorophenyl)sulfanyl-6-[6-(3,4-difluoro-phenoxy)-2-pyridyl]-6-(3-thienyl)piperidine-2,4-dione] | 0.031
5 | O=C1CC(c2ccsc2)(c2cccc(Oc3ccc(F)c(F)c3)n2)NC(=O)C1Sc1ccccc1Cl (single isomer, unassigned) [Example 78, 3-(2-chlorophenyl)sulfanyl-6-[6-(3,4-difluoro-phenoxy)-2-pyridyl]-6-(3-thienyl)piperidine-2,4-dione] | 0.023
6 | O=C1CC(c2ccsc2)(c2cccc(Oc3cccc(F)c3)n2)NC(=O)C1Sc1ccccc1Cl (single isomer, unassigned) [Example 79, 3-(2-chlorophenyl)sulfanyl-6-[6-(3-fluorophenoxy)-2-pyridyl]-6-(3-thienyl) piperidine-2,4-dione] | 0.199
7 | O=C1CC(c2ccsc2)(c2cccc(OCC(F)(F)F)n2)NC(=O)C1Sc1ccccc1Cl (single isomer, unassigned) [Example 82, 3-(2-chlorophenyl)sulfanyl-6-(3-thienyl)-6-[6-(2,2,2-trifluoroethoxy)-2-pyridyl]piperidine-2,4-dione] | 0.049
8 | O=C1CC(c2ccsc2)(c2cccc(Oc3ccc(F)c(Cl)c3)n2)NC(=O)C1Sc1ccccc1Cl (single isomer, unassigned) [Example 83, 6-(6-(3-chloro-4-fluoro-phenoxy)pyridin-2-yl)-3-((2-chlorophenyl)thio)-6-(thiophen-3-yl) piperidine-2,4-dione] | 0.013
9 | O=C1CC(c2ccsc2)(c2cccc(OCC3CC3)n2)NC(=O)C1Sc1ccccc1Cl (single isomer, unassigned) [Example 84, 3-(2-chlorophenyl)sulfanyl-6-[6-(cyclopropyl-methoxy)-2-pyridyl]-6-(3-thienyl)piperidine-2,4-dione] | 0.008
10 | O=C1CC(c2ccsc2)(c2cccc(OCC(F)(F)F)n2)NC(=O)C1Sc1ccccc1Cl (single isomer, unassigned) [Example 86, 3-(2-chlorophenyl)sulfanyl-6-(3-thienyl)-6-[6-(2,2,2-trifluoroethoxy)-2-pyridyl]piperidine-2,4-dione] | 0.022
11 | O=C1CC(c2ccsc2)(c2cccc(OCC(F)(F)F)n2)NC(=O)C1Sc1ccccc1Cl (single isomer, unassigned) [Example 87, 3-(2-chlorophenyl)sulfanyl-6-(3-thienyl)-6-[6-(2,2,2-trifluoroethoxy)-2-pyridyl]piperidine-2,4-dione] | 0.01
12 | O=C1CC(c2ccsc2)(c2cccc(Oc3cccc4ncccc34)n2)NC(=O)C1Sc1ccccc1Cl (single isomer, unassigned) [Example 91, 5-((2-chlorophenyl)thio)-4-hydroxy-6′-(quinolin-5-yloxy)-2-(thiophen-3-yl)-2,3-dihydro-[2,2′-bipyridin]-6(1H)-one] | 0.011
13 | O=C1CC(c2ccsc2)(c2cccc(OCC3CC3)n2)NC(=O)C1Sc1ccccc1Cl (single isomer, unassigned) [Example 93, 3-(2-chlorophenyl)sulfanyl-6-[6-(cyclopropyl-methoxy)-2-pyridyl]-6-(3-thienyl)piperidine-2,4-dione] | 0.319
14 | O=C1CC(c2ccsc2)(c2cccc(OCC3CC3)n2)NC(=O)C1Sc1ccccc1Cl (single isomer, unassigned) [Example 97, 3-(2-chlorophenyl)sulfanyl-6-[6-(cyclopropyl-methoxy)-2-pyridyl]-6-(3-thienyl)piperidine-2,4-dione] | 0.03
15 | O=C1CC(c2ccsc2)(c2cccc(OC3CCC(O)C3)n2)NC(=O)C1Sc1ccccc1Cl (single isomer, unassigned) [Example 104, 3-((2-chlorophenyl)thio)-6-(6-((3-hydroxycyclo-pentyl)oxy)pyridin-2-yl)-6-(thiophen-3-yl) piperidine-2,4-dione] | 0.118
16 | O=C1CC(c2ccsc2)(c2cccc(OC3CCC(O)C3)n2)NC(=O)C1Sc1ccccc1Cl (single isomer, unassigned) [Example 106, 3-((2-chlorophenyl)thio)-6-(6-((3-hydroxy-cyclopentyl)oxy)pyridin-2-yl)-6-(thiophen-3-yl)piperidin-2,4-dione] | 0.732
17 | O=C1CC(c2ccsc2)(c2cccc(Oc3ccc(F)c(Cl)c3)n2)NC(=O)C1Sc1ccccc1Cl (single isomer, unassigned) [Example 108, 6-(6-(3-chloro-4-fluoro-phenoxy)pyridin-2-yl)-3-((2-chlorophenyl)thio)-6-(thiophen-3-yl) piperidine-2,4-dione] | 0.108
18 | O=C1CC(c2ccsc2)(c2cccc(NCCC3CC3)n2)NC(=O)C1Sc1ccccc1Cl (single isomer, unassigned) [Example 110, 3-(2-chlorophenyl)sulfanyl-6-[6-(2-cyclopropylethyl-amino)-2-pyridyl]-6-(3-thienyl)piperidine-2,4-dione] | 0.018
19 | O=C1CC(c2ccsc2)(c2cccc(Oc3ccc(F)c(Cl)c3)n2)NC(=O)C1Sc1ccccc1Cl (single isomer, unassigned) [Example 112, 6-(6-(3-chloro-4-fluoro-phenoxy)pyridin-2-yl)-3-((2-chlorophenyl)thio)-6-(thiophen-3-yl) piperidine-2,4-dione] | 0.01
20 | O=C1CC(c2ccsc2)(c2cccc(OCCC3CCCC3)n2)NC(=O)C1Sc1ccccc1Cl (single isomer, unassigned) [Example 113, 3-((2-chlorophenyl)thio)-6-(6-(2-cyclopentyl-ethoxy)pyridin-2-yl)-6-(thiophen-3-yl)piperidine-2,4-dione] | 0.014

Next, values leading:

Row | IC50 [µM] | Structure (SMILES)
21 | 0.044 | O=C1C[C@@](c2ccsc2)(c2ccc(N3CCOCC3)c(F)c2)NC(=O)C1Sc1ccccc1Cl (mixture of isomers) [Example 316, (6S)-3-(2-chlorophenyl) sulfanyl-6-(3-fluoro-4-morpholine-phenyl)-6-(3-thienyl)piperidine-2,4-dione]
22 | 0.162 | O=C1C[C@](c2ccsc2)(c2cccc(Oc3ccc(F)nc3Cl)n2)NC(=O)C1Sc1ccccc1Cl (mixture of isomers) [Example 325, (6S)-6-[6-[(2-chloro-6-fluoro-3-pyridyl)oxy]-2-pyridyl]-3-(2-chlorophenyl) sulfanyl-6-(3-thienyl) piperidine-2,4-dione]
23 | 0.03 | C[C@@H](Nc1cccc(C2(c3ccsc3)CC(=O)C(Sc3ccccc3Cl)C(=O)N2)n1)c1ccc(F)cc1 (mixture of isomers) [Example 302, 3-((2-chlorophenyl)thio)-6-(6-((1-(4-fluorophenyl)ethyl)amino)pyridin-2-yl)-6-(thiophen-3-yl) piperidine-2,4-dione]
24 | 0.053 | CC(C)(O)CCCOc1cccc(C2(c3ccsc3)CC(=O)C(Sc3ccccc3Cl)C(=O)N2)n1 (single isomer, unassigned) [Example 114, 3-((2-chlorophenyl)thio)-6-(6-((4-hydroxy-4-methyl-pentyl)oxy)pyridin-2-yl)-6-(thiophen-3-yl) piperidine-2,4-dione]
25 | 0.031 | O=C1CC(c2ccsc2)(c2cccc(Oc3cccc(C(F)F)c3)n2)NC(=O)C1Sc1ccccc1Cl (single isomer, unassigned) [Example 115, 3-(2-chlorophenyl)sulfanyl-6-[6-[3-(difluoromethyl)phenoxy]-2-pyridyl]-6-(3-thienyl)piperidine-2,4-dione]
26 | 0.376 | O=C1CC(c2ccsc2)(c2cccc(Oc3ccccc3Br)n2)NC(=O)C1Sc1ccccc1Cl (single isomer, unassigned) [Example 116, 6-[6-(2-bromophenoxy)-2-pyridyl]-3-(2-chlorophenyl) sulfanyl-6-(3-thienyl) piperidine-2,4-dione]
27 | 0.076 | O=C1CC(c2ccsc2)(c2cccc(Oc3ccc4ncccc4c3)n2)NC(=O)C1Sc1ccccc1Cl (single isomer, unassigned) [Example 117, 3-(2-chlorophenyl)sulfanyl-6-[6-(6-quinolyloxy)-2-pyridyl]-6-(3-thienyl) piperidine-2,4-dione]
28 | 0.622 | O=C1CC(c2ccsc2)(c2cccc(Cc3ccccc3)n2)NC(=O)C1Sc1ccccc1Cl (single isomer, unassigned) [Example 118, 6-(6-benzylpyridin-2-yl)-3-((2-chloropnenyl)thio)-6-(thiophen-3-yl) piperidine-2,4-dione]
29 | 0.293 | CC(C)CCOc1cccc(C2(c3ccsc3)CC(=O)C(Sc3ccccc3Cl)C(=O)N2)n1 (single isomer, unassigned) [Example 119, 3-(2-chlorophenyl)sulfanyl-6-(6-isopentyloxy-2-pyridyl)-6-(3-thienyl) piperidine-2,4-dione]
30 | 0.016 | O=C1CC(c2ccsc2)(c2cccc(Oc3ccc4ncccc4c3)n2)NC(=O)C1Sc1ccccc1Cl (single isomer, unassigned) [Example 120, 3-(2-chlorophenyl)sulfanyl-6-[6-(6-quinolyloxy)-2-pyridyl]-6-(3-thienyl) piperidine-2,4-dione]

Source: patent US20170001990A1 (Genentech, Inc., priority 2014, published 2017)
